Measured values: patent publication US20170035708A1, “USE OF N-(4-TERT-BUTYLBENZYL)-3-CHLORO-N-[2-(4-CHLORO-3-ETHYL-PHENYL)-ETHYL]-2-FLUORO-5-TRIFLUOROMETHYL-BENZAMIDE FOR THE TREATMENT OF EYE DISEASES” (Hoffmann-La Roche Inc., priority 2013, published 2017)
“And” between values parts separate entries of the source, which are not always exact repeats. Equal entries are not always repeated.

Tests used:
[1] = target: T1, cholesteryl ester transfer protein (CETP) (Homo sapiens, UniProt P11597); experiment: In vitro inhibition of CETP activity; format: biochemical
T1 sequence (P11597 18-493): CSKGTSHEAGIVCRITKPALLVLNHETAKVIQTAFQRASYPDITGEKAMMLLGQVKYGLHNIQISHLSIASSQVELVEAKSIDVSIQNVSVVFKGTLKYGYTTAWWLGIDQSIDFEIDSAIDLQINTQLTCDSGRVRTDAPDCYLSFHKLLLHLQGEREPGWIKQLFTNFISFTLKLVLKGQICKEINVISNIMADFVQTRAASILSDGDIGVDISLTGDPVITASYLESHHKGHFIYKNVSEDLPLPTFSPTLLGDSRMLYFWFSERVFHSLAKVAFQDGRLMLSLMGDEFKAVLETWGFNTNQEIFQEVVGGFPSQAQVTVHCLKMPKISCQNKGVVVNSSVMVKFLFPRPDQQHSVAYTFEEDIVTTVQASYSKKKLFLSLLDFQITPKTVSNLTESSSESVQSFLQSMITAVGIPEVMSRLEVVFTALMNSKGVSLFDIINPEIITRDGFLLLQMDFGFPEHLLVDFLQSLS

CETP activity = target: T2, CETP activity (Macaca fascicularis, UniProt P47896); experiment: In vivo inhibition of CETP activity in cynomolgus monkeys
T2 construct: from tissue; host or cells: cynomolgus monkey, in vivo (endogenous circulating CETP)
T2 sequence (P47896 18-493): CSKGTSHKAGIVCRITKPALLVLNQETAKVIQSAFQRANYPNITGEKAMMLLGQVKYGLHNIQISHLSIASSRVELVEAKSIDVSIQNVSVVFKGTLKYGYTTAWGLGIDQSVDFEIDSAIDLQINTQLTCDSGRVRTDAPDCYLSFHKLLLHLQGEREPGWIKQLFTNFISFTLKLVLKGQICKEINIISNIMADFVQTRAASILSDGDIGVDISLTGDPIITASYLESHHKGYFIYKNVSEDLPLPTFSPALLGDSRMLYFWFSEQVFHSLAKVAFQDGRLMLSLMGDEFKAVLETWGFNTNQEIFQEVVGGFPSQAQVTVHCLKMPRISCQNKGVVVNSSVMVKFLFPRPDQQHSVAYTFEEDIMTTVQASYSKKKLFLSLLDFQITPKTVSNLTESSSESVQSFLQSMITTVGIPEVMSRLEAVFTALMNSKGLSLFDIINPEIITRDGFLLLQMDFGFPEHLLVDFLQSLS

[2] = Pharmacokinetic properties and excretion in the cynomolgus monkey; format: in vivo
Experimental: (§1) The pharmacokinetic (PK) properties of N-(4-tert-Butyl-benzyl)-3-chloro-N-[2-(4-chloro-3-ethyl-phenyl)-ethyl]-2-fluoro-5-trifluoromethyl-benz-amide were assessed in the rat and cynomolgus monkey. […] The very high protein binding, in combination with moderate membrane permeability, is the likely cause for the low volume of distribution observed in vivo.
In the rat and cynomolgus monkey, the major excretion route was the bile and feces, independent of the route of administration (approximately 92% of administered dose eliminated). Less than 1% of the dose was eliminated renally.

Membrane permeability = format: in vitro ADME
Experimental: as §1

[3] = Physicochemical properties (solubility, stability, lipophilicity)
From the text: (§2) N-(4-tert-Butyl-benzyl)-3-chloro-N-[2-(4-chloro-3-ethyl-phenyl)-ethyl]-2-fluoro-5-trifluoromethyl-benz-amide is a potent inhibitor of cholesteryl ester transfer protein (CETP), which was originally developed for the treatment of dyslipidemia and prevention of cardiovascular events. The clinical development was discontinued in 2009 due to strategic portfolio decision; the discontinuation was not due to the safety profile of the product. […] Liquid-filled hard capsules in the dose strength of 60 mg have been developed.
as §1

plasma CETP activity = target: T3, plasma CETP activity (Homo sapiens, UniProt P11597); experiment: Plasma CETP activity and CETP mass in combined SAD/MAD clinical study; format: in vivo
T3 construct: from tissue; host or cells: plasma of study subjects
T3 sequence (P11597 18-493): T1 sequence (P11597 18-493)
Experimental: The main difference between the different doses was the duration of the inhibition, which was sustained for 24 hours with the two highest tested multiple dose levels (180 mg and 420 mg). […] After multiple doses of N-(4-tert-Butyl-benzyl)-3-chloro-N-[2-(4-chloro-3-ethyl-phenyl)-ethyl]-2-fluoro-5-trifluoromethyl-benz-amide for 14 days, a similar trend in CETP inhibition was observed.

scavenger receptor SRB1 = experiment: Cholesterol efflux from cells; format: cell-based; conditions: via scavenger receptor SRB1
From the text: as §2

[4] = system: Human umbilical vein endothelial cells (HUVEC); experiment: alamarBlue viability assay in HUVECs; format: cell-based; conditions: 72 h
Experimental: Human umbilical vein endothelial cells (HUVEC), the growth medium EGM and the basal medium EBM was obtained from Lonza. Additional FCS for the starving medium was used form Invitrogen.
The viability assay with alamarBlue® from Invitrogen was done in 96 well gelatin coated plates from BD.
The tested compounds were dissolved in DMSO at a stock concentration of 10 mM.
VEGF-A165 was obtained from R&D Systems® and has been dissolved at a stock concentration of 100 ug/ml in PBS.
HUVECs cells were maintained in Endothial growth medium (EGM) until Passage 5. For the viability assay HUVECs have been seeded in EBM with 0.5% FCS on gelatin coated 96 well plates at a cell density of 11.000 cells/well. Outer wells were left free and have been filled with medium afterwards. Cells were incubated overnight in a cell culture incubator at 37° C. with 5% CO2. Compounds and VEGF have been diluted in EBM/0.5% FCS to a 20× working concentration. 5 ul of the 20× pre-dilution have been added to the cells. HUVECs which have to be intended to grow under hypoxia conditions have been transferred to a cell culture incubator with 1% O2, 5% CO2 and 37° C. HUVECs grown under normoxia conditions were incubated in a normal cell culture incubator. After 72 h, 11 ul of alamarBlue® have been added to each well of the cells subsequently incubated for 4 h in the cell culture incubator. The absorbance has been detected at 570 nm with a reference wavelength of 600 nm.

IC50 [1]: 8 nM and 7.21 nM | absolute oral bioavailability [2]: relatively low | dose eliminated renally [2]: Less than 1% | gastrointestinal absorption [2]: limited | terminal half-life [2]: medium to long | total systemic clearance [2]: low | volume of distribution [2]: low | plasma protein binding ([2]; across species): very high | administered dose eliminated via bile and feces ([2]; independent of the route of administration): approximately 92% | membrane permeability (Membrane permeability): moderate | lipophilicity [3]: highly lipophilic | solubility in aqueous media ([3]; aqueous media): practically insoluble | dissolution rate ([3]; as cause of limited absorption): low | solubility ([3]; as cause of limited absorption): low | solubility in common organic solvents ([3]; common organic solvents): soluble | stability of the powder ([3]; white to off-white powder): stable | inhibition of plasma CETP activity (plasma CETP activity; first measurement, 2 hours post-dose, Day 1, all doses, healthy and mildly dyslipidemic subjects): Complete CETP inhibition | duration of the CETP inhibition (plasma CETP activity; two highest multiple dose levels (180 mg and 420 mg)): 24 h
Structure (SMILES): CCc1cc(CCN(Cc2ccc(C(C)(C)C)cc2)C(=O)c2cc(C(F)(F)F)cc(Cl)c2F)ccc1Cl [Compound 1, N-(4-tert-Butyl-benzyl)-3-chloro-N-[2-(4-chloro-3-ethyl-phenyl)-ethyl]-2-fluoro-5-trifluoromethyl-benzamide]
inhibition of CETP activity in vivo (CETP activity): inhibition of CETP activity has been demonstrated | CETP mass (plasma CETP activity; after multiple doses): dose-dependent and time-dependent increase | cholesterol efflux from cells (scavenger receptor SRB1): efflux cholesterol from cells via scavenger receptor SRB1 | alamarBlue assay OD 570 nm-600 nm ([4]; 4.1 nM, hypoxia): −0.0059 | alamarBlue assay OD 570 nm-600 nm ([4]; 4.1 nM, normoxia): 0.0073 | alamarBlue assay OD 570 nm-600 nm ([4]; 10.2 nM, hypoxia): 0.0152 | alamarBlue assay OD 570 nm-600 nm ([4]; 10.2 nM, normoxia): 0.0075 | alamarBlue assay OD 570 nm-600 nm ([4]; 25.6 nM, hypoxia): 0.0144 | alamarBlue assay OD 570 nm-600 nm ([4]; 25.6 nM, normoxia): 0.0056 | alamarBlue assay OD 570 nm-600 nm ([4]; 64 nM, hypoxia): 0.0118 | alamarBlue assay OD 570 nm-600 nm ([4]; 64 nM, normoxia): 0.0062 | alamarBlue assay OD 570 nm-600 nm ([4]; 160 nM, hypoxia): 0.0233 | alamarBlue assay OD 570 nm-600 nm ([4]; 160 nM, normoxia): 0.0127 | alamarBlue assay OD 570 nm-600 nm ([4]; 400 nM, hypoxia): 0.0326 | alamarBlue assay OD 570 nm-600 nm ([4]; 400 nM, normoxia): 0.0223 | alamarBlue assay OD 570 nm-600 nm ([4]; 1000 nM, hypoxia): 0.0967 | alamarBlue assay OD 570 nm-600 nm ([4]; 1000 nM, normoxia): 0.0600 | alamarBlue assay OD 570 nm-600 nm ([4]; 2500 nM, hypoxia): 0.1488 | alamarBlue assay OD 570 nm-600 nm ([4]; 2500 nM, normoxia): 0.1512 | effect on viability of HUVECs ([4]; hypoxia): induced a strong cell survival | effect on viability of HUVECs ([4]; normoxia): positive effect of viability
